Paper PMC10571957, “αV-Integrin-Dependent Inhibition of Glioblastoma Cell Migration, Invasion and Vasculogenic Mimicry by the uPAcyclin Decapeptide” (Cancers, 2023)

Legend:
[1] = test system: U251-MG cells (αV integrin); experiment: FITC-uPAcyclin receptor binding/competition, U251-MG; design: species or system human; settings: unlabeled uPAcyclin vs FITC-uPAcyclin, 4 °C
Protocol: The U87-MG, U251-MG, and U138-MG cell lines were harvested and acid-treated, as described. Then, 2 × 10^6 cells/sample were exposed for 30 min at 4 °C to uPAcyclin or S-uPAcyclin at the indicated concentrations, or with the following antibodies: VNR147 monoclonal anti-αV integrin (Chemicon Int. Inc., Temecula, CA, USA), polyclonal anti-αV (Millipore, Burlington, MA, USA), monoclonal anti-α2 (Chemicon Int. Inc., Temecula, CA, USA), polyclonal anti-actin (Sigma-Aldrich, St. Louis, MO, USA), monoclonal anti-GAPDH (Abcam, Cambridge, UK), and purified vitronectin (VN, Corning, Glendale, AZ, USA). The cells were subsequently incubated with 50 nM FITC-uPAcyclin for 2 h at 4 °C, as described. At the end of incubation, the cells were washed and the cell surface-associated fluorescence was determined using a fluorimeter (VICTOR^TM X3-PerkinElmer, Waltham, MA, USA). All binding assays were performed three times, with duplicate samples, and analyzed as described in Section 2.11.
Figure 2 αV expression of U87-MG, U251-MG, and U138-MG GBM cells and specific binding of FITC-uPAcyclin. […] At the end of the incubation, the unbound material was washed and cell-associated FITC-uPAcyclin was quantitated by a fluorimeter. The net value of cell-surface-associated fluorescence, corresponding to the specific binding, is shown. […]

[2] = test system: VE-cadherin; experiment: VE-cadherin expression in matrix-recovered U251-MG cells (Western blot); assay type: cell-based, human; settings: 1 µM uPAcyclin, VM-forming U251-MG, 24 h
From the text: Whole cells were lysed as described, and resolved by SDS-PAGE, followed by Western blotting with PVDF membranes (Millipore, Burlington, MA, USA). The filters were probed with the following antibodies: polyclonal anti-VE Cadherin (Bioss Antibodies, Woburn, MA, USA), polyclonal anti-αV (Millipore), polyclonal anti-GAPDH (Elabscience, Houston, TX, USA), and polyclonal anti-actin (Sigma-Aldrich, St. Louis, MO, USA). Then, goat anti-rabbit IgG-HRP (Sigma) or goat anti-mouse IgG-HRP (Santa Cruz Biotechnology, Dallas, TX, USA) were employed as secondary antibodies. […] Films were imaged using the CanoScan 4400F (Canon, Tokyo, Japan) at 300 dpi, with the Adobe Photoshop Creative Suite 2 or CS2, and bands were quantified with the ImageJ 1.52a software (NIH, Bethesda, MD, USA).
To analyze matrix-embedded U251-MG cells, cells undergoing VM for 24 h were extracted using a 2× mixture of Trypsin, Accutase, and Dispase (1:1:1), acting for 45 min at 37 °C. […] The supernatants were collected and the protein concentration was quantified using the Bradford assay (Biorad, Hercules, CA, USA).
Figure 8 Vascular mimicry formation and VE-cadherin expression inhibited by uPAcyclin in U251-MG cells. […] (B) The quantitation of the branching point number is described in the legend to Figure 6B. […] The densitometric quantitation of VE-cadherin bands is shown (right panel) (* p-value < 0.05; *** p-value < 0.001).

[3] = test system: U251-MG cells; experiment: Cell viability/proliferation (Trypan blue), U251-MG; assay type: cell-based, human; settings: 1 nM or 100 nM, 72–96 h
Protocol: Cell viability was tested in DMEM/10% FBS, in the presence of 1 nM or 100 nM uPAcyclin, either by Trypan blue exclusion or by thiazolyl blue tetrazolium bromide (MTT) assays, as specified in the figure legends. For the Trypan blue assay, 4 × 10^4 U87-MG, U251-MG, U138-MG, and C6 cells/sample were grown in 12-well plates, and followed for 24, 48 and 72 h. As a negative control, the cells were grown in a serum-free medium. Then, the cells were detached, stained with a 0.2% (w/v) Trypan blue solution, counted using a Burker chamber (T0 = 100%), and reported as number of viable cells/total.

[4] = test system: breast cancer cell lines; settings: ref Belli et al. [25]; cited from earlier work
[5] = test system: cancer-associated fibroblasts (CAFs) from breast cancer patients; settings: ref [30]; cited from earlier work
From the text: Thus, in the present work, we investigated the effects of the anti-migratory uPAcyclin decapeptide, binding to the αV integrin subunit. This cyclic decapeptide is derived from a non-catalytic region of the human urokinase (uPA) plasminogen activator. The growth factor domain (GFD, residues 1–49) and the connecting peptide region (CP, residues 132–158) confer to the full uPA a clearcut motogen activity. While the GFD binds to the urokinase receptor (uPAR), the CP region binds to the αV integrin subunit.

Ac-K^1P[ESPPEELK^10]-NH2 (sidechain bridge or staple) [uPAcyclin]
Kdapp [1]: low nanomolar range | VE-cadherin expression [2]: markedly reduced | proliferation/viability [3]: unaffected by uPAcyclin, regardless of the concentration employed | migration and invasion inhibition [4]: potent inhibitor of migration and invasion of breast cancer cell lines | pro-invasive ability of CAFs [5]: inhibited the pro-invasive ability of cancer-associated fibroblasts
